Results taken from patent publication US11066414B2, “Cot modulators and methods of use thereof” (Gilead Sciences, Inc., priority 2015, dated 2021).
Like-named read-outs stand apart in the source and are kept apart here.

How the values were obtained:
Human Cot = Human Cot (Homo sapiens (Human), UniProt P41279); assay: High Throughput Cot Biochemical Assay; settings: IC50 HTRF
TNFα = assay: Cot Monocyte TNFα Cell Based Assay; settings: Homo sapiens, Monocyte
[1] = Cot HTRF (TR-FRET) biochemical assay
[2] = read-out: EC50 TNF, LPS-stimulated human monocytes, TNFα
[3] = Cot HTRF (TR-FRET KinEASE) biochemical assay, 400 μM ATP
[4] = read-out: EC50 TNF, LPS-stimulated human monocytes, TNFα TR-FRET

Chain of Human Cot (P41279 30-397): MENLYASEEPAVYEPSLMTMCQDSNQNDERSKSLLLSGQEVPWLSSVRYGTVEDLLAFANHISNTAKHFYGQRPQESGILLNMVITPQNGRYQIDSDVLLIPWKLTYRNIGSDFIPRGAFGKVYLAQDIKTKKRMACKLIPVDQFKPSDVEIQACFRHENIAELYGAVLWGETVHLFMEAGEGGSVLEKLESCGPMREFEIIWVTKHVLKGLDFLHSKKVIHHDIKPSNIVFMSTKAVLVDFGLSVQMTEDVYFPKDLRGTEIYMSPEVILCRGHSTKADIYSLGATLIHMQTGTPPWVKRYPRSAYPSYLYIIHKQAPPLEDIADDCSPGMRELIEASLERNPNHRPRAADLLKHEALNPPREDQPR

Compound | IC50 (Human Cot; [1]) [nM] | EC50 (TNFα; [2]) [nM] | IC50 (Human Cot; [3]) [nM] | EC50 (TNFα; [4]) [nM]
Cc1nc(F)ccc1[C@H](Nc1cc(Cl)c2ncc(C#N)c(NCC(C)(C)C)c2c1)c1cn(C2(C(C)C)CC2)nn1 [Example 757, (S)-8-chloro-6-(((6-fluoro-2-methylpyridin-3-yl)(1-(1-isopropylcyclopropyl)-1H-1,2,3-triazol-4-yl)methyl)amino)-4-(neopentylamino)quinoline-3-carbonitrile] | 5 | 60 |  | 
Cc1ncccc1[C@H](Nc1cc(Cl)c2ncc(C#N)c(NCC(C)(C)C)c2c1)c1cn(C2CC2)nn1 [Example 131, (S)-8-chloro-6-(((1-cyclopropyl-1H-1,2,3-triazol-4-yl)(2-methylpyridin-3-yl)methyl)amino)-4-(neopentyl-amino)quinoline-3-carbonitrile] | 2 | 49 |  | 
CC(C)(C)CNc1c(C#N)cnc2c(C#N)cc(N[C@@H](c3ccc4cccnc4c3)c3cn(C4(C(F)F)CC4)nn3)cc12 [Example 708, (S)-6-(((1-(1-(difluoromethyl)cyclopropyl)-1H-1,2,3-triazol-4-yl)(quinolin-7-yl)methyl)amino)-4-(neopentylamino)quinoline-3,8-dicarbonitrile] | 6 | 176 |  | 
[2H]C([2H])([2H])C([2H])([2H])[C@@]([2H])(Nc1c(C#N)cnc2c(Cl)cc(N[C@@]([2H])(c3ccc(F)nc3)c3cn(C4CC4)nn3)cc12)c1ccccc1 [Example 109, 8-chloro-6-(((S)-(1-cyclopropyl-1H-1,2,3-triazol-4-yl)(6-fluoropyridin-3-yl)methyl-d)amino)-4-(((R)-1-phenylpropyl-1,2,2,3,3,3-d6)amino)quinoline-3-carbonitrile] | 2 | 54 |  | 
CC(C)(C)CNc1c(C#N)cnc2c(Cl)cc(N[C@H](c3cn(C4(C(F)(F)F)CC4)nn3)c3cnn4ncccc34)cc12 [Example 493, (S)-8-chloro-4-(neopentylamino)-6-((pyrazolo[1,5-b]pyridazin-3-yl(1-(1-(trifluoromethyl)cyclopropyl)-1H-1,2,3-triazol-4-yl)methyl)amino)quinoline-3-carbonitrile] | 31 | 1000 |  | 
Cc1nc(F)ccc1[C@H](Nc1cc(Cl)c2ncc(C#N)c(NCC(C)(C)C(F)(F)F)c2c1)c1nnn(C2(C(F)F)CC2)c1F [Example 948, (S)-8-chloro-6-(((1-(1-(difluoromethyl)cyclopropyl)-5-fluoro-1H-1,2,3-triazol-4-yl)(6-fluoro-2-methylpyridin-3-yl)methyl)amino)-4-((3,3,3-trifluoro-2,2-dimethylpropyl)amino)-quinoline-3-carbonitrile] |  |  | 5 | 99
CC(C)(C)N1CCC(n2cc([C@@H](Nc3cc(Cl)c4ncc(C#N)c(Nc5ccc(F)c(Cl)c5)c4c3)c3ccc4sccc4c3)nn2)CC1 [Example 64, (S)-6-((benzo[b]thiophen-5-yl(1-(1-(tert-butyl)piperidin-4-yl)-1H-1,2,3-triazol-4-yl)methyl)amino)-8-chloro-4-((3-chloro-4-fluorophenyl)amino)quinoline-3-carbonitrile] | 42 | 2650 |  | 
Cc1nc(F)ccc1[C@H](Nc1cc(Cl)c2ncc(C#N)c(NCC(C)(C)C)c2c1)c1cn(C2(CO)CC2)nn1 [Example 482, (S)-8-chloro-6-(((6-fluoro-2-methylpyridin-3-yl)(1-(1-(hydroxymethyl)cyclopropyl)-1H-1,2,3-triazol-4-yl)methyl)amino)-4-(neopentylamino)quinoline-3-carbonitrile] | 3 | 86 |  | 
[2H][C@](Nc1cc(OC)c2ncc(C#N)c(N[C@H](CC)c3ccccc3)c2c1)(c1ccc(F)nc1)c1cn(C2CC2)nn1 [Example 97, 6-(((S)-(1-cyclopropyl-1H-1,2,3-triazol-4-yl)(6-fluoropyridin-3-yl)methyl-d)amino)-8-methoxy-4-(((R)-1-phenylpropyl)amino)-quinoline-3-carbonitrile] | 20 | 358 |  | 
Cn1cnc2cccc([C@H](Nc3cc(Cl)c4ncc(C#N)c(NCC(C)(C)C)c4c3)c3cn(C4CC4)nn3)c21 [Example 459, (S)-8-chloro-6-(((1-cyclopropyl-1H-1,2,3-triazol-4-yl)(1-methyl-1H-benzo[d]imidazol-7-yl)methyl)amino)-4-(neopentylamino)quinoline-3-carbonitrile] | 3 | 50 |  | 
Cn1c(=O)ccc2c([C@H](Nc3cc(C#N)c4ncc(C#N)c(NCC(C)(C)C)c4c3)c3cn(C45CC(C4)C5)nn3)cccc21 [Example 887, (S)-6-(((1-(bicyclo[1.1.1]pentan-1-yl)-1H-1,2,3-triazol-4-yl)(1-methyl-2-oxo-1,2-dihydroquinolin-5-yl)methyl)amino)-4-(neopentylamino)quinoline-3,8-dicarbonitrile] |  |  | 3 | 33
N#Cc1csc([C@H](Nc2cc(Cl)c3ncc(C#N)c(Nc4ccc(F)c(Cl)c4)c3c2)c2cn(Cc3ccccn3)nn2)c1 [Example 317, (R)-8-chloro-4-((3-chloro-4-fluorophenyl)amino)-6-(((4-cyano-thiophen-2-yl)(1-(pyridin-2-ylmethyl)-1H-1,2,3-triazol-4-yl)methyl)-amino)quinoline-3-carbonitrile] | 16 | 251 |  | 
CC(C)n1cc([C@@H](Nc2cc(Cl)c3ncc(C#N)c(Nc4ccc(F)c(Cl)c4)c3c2)c2cnco2)nn1 [Example 298, (R)-8-chloro-4-((3-chloro-4-fluoro-phenyl)amino)-6-(((1-isopropyl-1H-1,2,3-triazol-4-yl)(oxazol-5-yl)methyl)-amino)quinoline-3-carbonitrile] | 39 | 1500 |  | 
Cc1nc(F)ccc1[C@H](Nc1cc(C#N)c2ncc(C#N)c(NCC(C)(C)C)c2c1)c1cn(Cc2c(F)cccc2F)nn1 [Example 601, (S)-6-(((1-(2,6-difluorobenzyl)-1H-1,2,3-triazol-4-yl)(6-fluoro-2-methylpyridin-3-yl)methyl)amino)-4-(neopentylamino)quinoline-3,8-dicarbonitrile] | 4 | 32 |  | 
Cc1nc(F)ccc1[C@H](Nc1cc(Cl)c2ncc(C#N)c(NCC3(C)COC3)c2c1)c1cn(C2(C(F)(F)F)CC2)nn1 [Example 792, (S)-8-chloro-6-(((6-fluoro-2-methylpyridin-3-yl)(1-(1-(trifluoromethyl)-cyclopropyl)-1H-1,2,3-triazol-4-yl)methyl)amino)-4-(((3-methyloxetan-3-yl)methyl)amino)quinoline-3-carbonitrile] | 89 | 843 |  | 
Cc1n[nH]c2cccc([C@H](Nc3cc(C#N)c4ncc(C#N)c(NCC(C)(C)C)c4c3)c3cn(C4(C(F)(F)F)CC4)nn3)c12 [Example 528, (S)-6-(((3-methyl-1H-indazol-4-yl)(1-(1-(trifluoro-methyl)cyclopropyl)-1H-1,2,3-triazol-4-yl)methyl)amino)-4-(neopentylamino)quinoline-3,8-dicarbonitrile] | 3 | 60 |  | 
Cc1nc(F)ccc1[C@H](Nc1cc(C#N)c2ncc(C#N)c(NCC(C)(C)C)c2c1)c1cn([C@@H]2C[C@@H]2F)nn1 [Example 622, 6-(((S)-(6-fluoro-2-methylpyridin-3-yl)(1-((1R,2S)-2-fluorocyclopropyl)-1H-1,2,3-triazol-4-yl)methyl)amino)-4-(neopentylamino)quinoline-3,8-dicarbonitrile] | 1 | 24 |  | 
Cc1nc(F)ccc1[C@H](Nc1cc(C#N)c2ncc(C#N)c(N[C@H](C)C(C)(C)C)c2c1)c1cn(C2(C(F)(F)F)CC2)nn1 [Example 583, 4-(((R)-3,3-dimethylbutan-2-yl)amino)-6-(((S)-(6-fluoro-2-methylpyridin-3-yl)(1-(1-(trifluoromethyl)cyclopropyl)-1H-1,2,3-triazol-4-yl)methyl)amino)quinoline-3,8-dicarbonitrile] | 4 | 121 |  | 
Cc1nc(F)ccc1[C@H](Nc1cc(Cl)c2ncc(C#N)c(NCC(C)(C)C)c2c1)c1cn(C(C)(C)CF)nn1 [Example 531, (S)-8-chloro-6-(((1-(1-fluoro-2-methyl-propan-2-yl)-1H-1,2,3-triazol-4-yl)(6-fluoro-2-methylpyridin-3-yl)methyl)amino)-4-(neopentylamino)quinoline-3-carbonitrile] | 3 | 70 |  | 
Cn1nccc1[C@H](Nc1cc(C#N)c2ncc(C#N)c(NCC(C)(C)C)c2c1)c1cn(C2(C(F)(F)F)CC2)nn1 [Example 678, (S)-6-(((1-methyl-1H-pyrazol-5-yl)(1-(1-(trifluoromethyl)cyclopropyl)-1H-1,2,3-triazol-4-yl)methyl)amino)-4-(neopentylamino)quinoline-3,8-dicarbonitrile] | 5 | 131 |  | 
CCC1(n2cc([C@@H](Nc3cc(Cl)c4ncc(C#N)c(NCC(C)(C)C)c4c3)c3cccc4c(=O)n(C)ccc34)nn2)CC1 [Example 756, (S)-8-chloro-6-(((1-(1-ethylcyclopropyl)-1H-1,2,3-triazol-4-yl)(2-methyl-1-oxo-1,2-dihydroisoquinolin-5-yl)methyl)amino)-4-(neopentylamino)quinoline-3-carbonitrile] | 3 | 26 |  | 
Cn1cc2cccc([C@H](Nc3cc(Cl)c4ncc(C#N)c(NCC(C)(C)C)c4c3)c3cn(C4(C(F)(F)F)CC4)nn3)c2n1 [Example 570, (S)-8-chloro-6-(((2-methyl-2H-indazol-7-yl)(1-(1-(trifluoromethyl)cyclopropyl)-1H-1,2,3-triazol-4-yl)methyl)amino)-4-(neopentylamino)quinoline-3-carbonitrile] | 184 | 1000 |  | 
CC(C)(C)CNc1c(C#N)cnc2c(Cl)cc(N[C@@H](c3cccnc3)c3c[nH]nn3)cc12 [Example 167, (S)-8-chloro-4-(neopentylamino)-6-((pyridin-3-yl(1H-1,2,3-triazol-4-yl)methyl)amino)quinoline-3-carbonitrile] | 4 | 506 |  | 
